Reference: PMC8315922, “In Vitro Identification and In Vivo Confirmation of Inhibitors for Sweet Potato Chlorotic Stunt Virus RNA Silencing Suppressor, a Viral RNase III” (Journal of Virology, 2021)
Read-outs that look alike come from different tables or passages of the source.

Experiments:
[1] = target: RNase III of Sweet potato chlorotic stunt virus (CSR3), His-tagged full-length (Sweet potato chlorotic stunt virus (SPCSV)); assay: native gel or EMSA; native Western blotting of purified CSR3, detected with rabbit polyclonal antibodies against CSR3; monomer to dimer
[2] = target: T1, CSR3 (RNase III of SPCSV) (Sweet potato chlorotic stunt virus, UniProt Q8JJW8); assay: Kinetic-based HTS (FRET, labeled 22-bp siRNA cleavage), one concentration; type: biochemical; conditions: compound 10 μM, 375 nM siRNA, 37°C
From the text: Based on the catalytic activity of CSR3 on 22-bp siRNA, our kinetic-based HTS assay was designed using distance-dependent FRET technology. Specifically, one strand of siRNA, as a substrate, was labeled with a fluorescent dye (6-carboxyfluorescein [FAM]) at the 5′ end and a quencher (black hole quencher 1 [BHQ1]) at the 3′ end. The initial reaction rate of CSR3 was quantified using the slope of raw fluorescence under an excitation/emission spectrum at 485/520 nm (Fig. 3A). […] In this study, a total of 6,622 compounds (including 6,400 selected from Glide docking and 222 empirically selected compounds for preliminary assay setup) were screened using kinetic-based HTS at a final concentration of 10 μM. All 384-well screening plates contained 32 negative (with CSR3 [i.e., the substrate was successfully cleaved]) and 32 positive (without CSR3 [i.e., the substrate remained intact]) control reaction mixtures. To evaluate the quality of the HTS assay, the Z-factor (Z′) parameter was calculated using the reaction rates of the positive and negative controls ([30]). […]
The HTS assay was designed based on FRET using a 22-bp siRNA (forward sequence, […]; reverse sequence, […]) with a 2-nucleotide (nt) 3′ overhang labeled with the fluorescent dye 6-carboxyfluorescein (FAM) and a black hole quencher (BHQ1) on the sense strand (Metabion, Munich, Germany). […] The plates were read with a PHERAstar FS reader (BMG Labtech, Ortenberg, Germany).
(§1) For HTS, the activity of CSR3 was calculated by measuring the change in fluorescence as a function of the reaction time using MARS Data Analysis software (BMG Labtech). To evaluate the CSR3 inhibition efficiency of individual compounds, the PI of each compound was calculated using the slope values for the sample, positive control, and negative control according to the following equation: PI = 100 × [1 − (sample − positive)/(negative − positive)]%. IC50 and DSS values were calculated using concentration-specific PI values according to a previous study ([31]). Relative gene expression was calculated using the classical 2^−ΔΔ^CT method ([63]).

[3] = target: T1, CSR3 (RNase III of SPCSV); assay: Kinetic-based FRET dose-response assay (IC50, DSS); type: biochemical; conditions: for IC50: 1.25 nM to 50 μM, unit inferred
Procedure: A dose-response assay with six concentrations (1.25 nM to 50 μM) was carried out in three independent experiments, which included two tests with the 112 selected FIMM compounds (i.e., compounds prepared by the HTB-FIMM) and one test using the newly ordered commercial compounds (99 of the 112 compounds, i.e., compounds prepared by a second supplier). A dose-response curve was generated for each compound based on PI values as a function of the concentration.
The HTS assay was designed based on FRET using a 22-bp siRNA (forward sequence, […]; reverse sequence, […]) with a 2-nucleotide (nt) 3′ overhang labeled with the fluorescent dye 6-carboxyfluorescein (FAM) and a black hole quencher (BHQ1) on the sense strand (Metabion, Munich, Germany). Screening was initially carried out at one concentration (10 μM) in a 20-μl reaction buffer. […] All reaction mixtures contained 50 nM CSR3 and 375 nM labeled siRNA in 384-well black flat-bottom microplates (Corning, NY, USA) and were prepared using a BioTek MultiFlo FX dispenser with single-channel random access dispenser cassettes (BioTek, Winooski, VT, USA). The plates were read with a PHERAstar FS reader (BMG Labtech, Ortenberg, Germany).
as §1

[4] = target: T2, CSR3 (Sweet potato chlorotic stunt virus, UniProt Q8JJW8); assay: Binding affinity assay using MST; conditions: Table S4
T2 sequence (Q8JJW8 1-228): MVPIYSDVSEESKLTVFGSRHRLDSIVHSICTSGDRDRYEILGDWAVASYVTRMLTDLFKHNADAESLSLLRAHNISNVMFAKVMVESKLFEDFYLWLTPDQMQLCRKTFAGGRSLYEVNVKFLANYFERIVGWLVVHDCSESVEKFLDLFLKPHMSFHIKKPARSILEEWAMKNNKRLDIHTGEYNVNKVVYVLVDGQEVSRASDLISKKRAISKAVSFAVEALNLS
Procedure: (§2) Binding affinity assays were first carried out with the 99 commercial compounds using the MST method.
The labeled-protein solution containing 500 nM proteins and 40 nM dye was prepared in PBS buffer with 2% dimethyl sulfoxide (DMSO) for the assay. The 12 concentrations for each compound were obtained by 2-fold serial dilutions (0.2 μM to 400 μM). […] Two independent experiments were carried out in premium coated capillaries (NanoTemper, Munich, Germany) using a Monolith NT.Automated instrument (NanoTemper) with the power set at high (80%), the light-emitting diode (LED) power (pico red) set at 5%, and the on-time set at 20 s. The dissociation constant (Kd) was determined using the MO.Affinity Analysis program (NanoTemper).

[5] = target: T2, CSR3; assay: Binding affinity assay using SPR; conditions: SPR dose-response 3 μM to 200 μM, 25°C; unit inferred, numbers match M (cf. Fig 5A); read-out: Steady State Affinity
Procedure: as §2
CSR3 was purified as described above and stored in PBS buffer. SPR was performed on a BiacoreT100 instrument (GE Healthcare) using a sensor S CM5 chip (GE Healthcare). CSR3 (10 ng/μl) was immobilized using the standard amine-coupling method according to the manufacturer’s instructions with immobilization buffer (10 mM sodium acetate [pH 4]); the final response unit (RU) value was 11,459. Compounds at a single concentration (100 μM) or consisting of 2-fold serial dilutions (3 μM to 200 μM) were flowed over the sensor surface using PBS buffer with 0.01 M HEPES, 0.05% surfactant P20, and 2% DMSO. […] To eliminate bulk interference by DMSO, a solvent correction consisting of DMSO at concentrations ranging from 1.5% to 2.8% was carried out for every 30 samples. Steady-state affinity (KD) values were determined using BiacoreT100 Evaluation software, v.2.04 (GE Healthcare).

For “RNase III of Sweet potato chlorotic stunt virus (CSR3), His-tagged full-length (enzyme)”, which stoichiometry N [1] is on record?
The stoichiometry N was 2.

With `Cc1ccc(C)c(C(=O)CSc2nnc[nH]2)c1` [FIMM027745] as the compound, how does the “PI values (percentage of inhibition)” value [2] read?
The value was 98.0616%.

What about the “DSS Comm 1” value ([3]; drug sensitivity score, repeat Comm 1) of the same compound?
The value was 1.9.

What about the “DSS FIMM1” value ([3]; drug sensitivity score, repeat FIMM 1) of the same compound?
The value was 19.2.

What about the “DSS FIMM 2” value ([3]; drug sensitivity score, repeat FIMM 2) of the same compound?
Its value is 16.7.

What about the IC50 ([3]; repeat Comm 1 (commercial compounds), numbers match nM, read-out: IC50 Comm 1) of the same compound?
Its IC50 is 14900 nM.

What about the IC50 ([3]; repeat FIMM 1 (FIMM library compounds), numbers match nM (cf. Fig 5A), read-out: IC50 FIMM1) of the same compound?
Its IC50 is 647 nM.

What about the IC50 ([3]; repeat FIMM 2 (FIMM library compounds), numbers match nM, read-out: IC50 FIMM 2) of the same compound?
The IC50 was 1120 nM.

What about the “Binding (Yes/No)” value ([4]; MST binding call) of the same compound?
The value was “No”.

What about the “Response Amplitude” value ([4]; MST response amplitude) of the same compound?
Its value is 0.

And the Kd [5]?
Its Kd is 13 µM.
